Read-outs that look alike come from different tables or passages of the source.
Tests used:
Test in all cases: biochemical
Assay type in all cases: binding
BtabCSP1 = molecular target: T1, BtabCSP1 (Bemisia tabaci, UniProt D6N3A3)
T1 sequence (D6N3A3 20-126): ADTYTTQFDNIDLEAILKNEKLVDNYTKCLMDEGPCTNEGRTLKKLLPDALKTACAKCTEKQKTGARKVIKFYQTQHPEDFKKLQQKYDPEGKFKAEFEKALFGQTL
Procedure: (§1) Protein-ligand binding affinity was determined for the three recombinant proteins. Emission fluorescence spectra were recorded on a Jasco FP-6500 Series fluorescence spectrofluorometer. […] Fluorescence was measured using an exciting wavelength of 337 nm. Emission spectrum was recorded between 350 and 500 nm.

BtabCSP2 = molecular target: T2, BtabCSP2 (Bemisia tabaci, UniProt H6UKS9); details: for IC50: displacement of 1-NPN
T2 sequence (H6UKS9 22-131): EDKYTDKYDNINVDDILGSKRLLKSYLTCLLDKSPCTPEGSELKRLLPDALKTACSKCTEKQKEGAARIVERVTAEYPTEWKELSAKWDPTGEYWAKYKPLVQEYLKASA
Procedure: as §1

BtabCSP3 = molecular target: T3, BtabCSP3 (Bemisia tabaci, UniProt A0A097GUB5); details: for IC50: displacement of 1-NPN
T3 sequence (A0A097GUB5 21-138): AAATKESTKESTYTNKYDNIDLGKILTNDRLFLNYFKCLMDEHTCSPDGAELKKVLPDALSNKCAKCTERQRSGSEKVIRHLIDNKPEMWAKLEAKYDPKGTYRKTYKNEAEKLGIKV
Procedure: as §1

[1] = competitive binding vs 1-NPN, three replicates ± SD, read-out: BtabCSP1 Ki
[2] = u.d. = binding constant not calculated, IC50>100 μM, read-out: BtabCSP2 Ki (u.d.)
[3] = u.d. = binding constant not calculated, IC50>100 μM, read-out: BtabCSP3 Ki (u.d.)
[4] = BtabCSP1 Ki (u.d.), u.d. = binding constant not calculated, IC50>100 μM
[5] = displacement of 1-NPN, read-out: IC50, BtabCSP1
[6] = u.d. = binding constant not calculated, IC50>100 μM, read-out: BtabCSP1 Ki (u.d.)
[7] = BtabCSP1 Ki, competitive binding vs 1-NPN, three replicates ± SD
[8] = competitive binding vs 1-NPN, three replicates ± SD, read-out: BtabCSP3 Ki

For S(-)-Limonene, the Ki (BtabCSP1; [1]) was 82.2 ± 3.47 µM, the Ki (BtabCSP2; [2]) was greater than 100 µM and the Ki (BtabCSP3; [3]) was greater than 100 µM.
With `O=Cc1ccccc1` [Benzaldehyde] the Ki (BtabCSP1; [4]) was greater than 100 µM, the Ki (BtabCSP2) was greater than 100 µM and the Ki (BtabCSP3) was greater than 100 µM.
`O=C(O)/C=C/c1ccccc1` [Cinnamic acid] was tested, and the Ki (BtabCSP1; [1]) was 75.5 ± 2.29 µM, the IC50 (BtabCSP1; [5]) was 14.6 to 95.1 µM and the Ki (BtabCSP2; [2]) was greater than 100 µM. The Ki (BtabCSP3; [3]) was greater than 100 µM.
For `CCCCC=O` [Valeraldehyde], the Ki (BtabCSP1; [6]) was greater than 100 µM, the Ki (BtabCSP2; [2]) was greater than 100 µM and the Ki (BtabCSP3; [3]) was greater than 100 µM.
With `CCCCCCCCC=O` [Nonanal] the Ki (BtabCSP1; [6]) was greater than 100 µM, the Ki (BtabCSP2; [2]) was greater than 100 µM and the Ki (BtabCSP3; [3]) was greater than 100 µM.
Work on `C=C(C)C1CC=C(C)[C@@H](O)C1` (single isomer, unassigned; (-)) [(-)-Carveol] yielded a Ki (BtabCSP1; [6]) greater than 100 µM, a Ki (BtabCSP2; [2]) greater than 100 µM and a Ki (BtabCSP3; [3]) greater than 100 µM.
With `CC1(C)[C@H]2CC[C@]1(C)C(=O)C2` [(1S)-(-)-Camphor] the Ki (BtabCSP1; [1]) was 50.8 ± 3.08 µM.
With `CCCCCCCCCCCC(=O)O` [Lauric acid] the Ki (BtabCSP1; [1]) was 35.2 ± 1.42 µM, the Ki (BtabCSP2; [2]) was greater than 100 µM and the Ki (BtabCSP3; [3]) was greater than 100 µM.
In the case of `C=CC(=C)CCC=C(C)C` [Myrcene], the IC50 (BtabCSP1; [5]) is reported as 14.6 to 95.1 µM, the Ki (BtabCSP1; [6]) is reported as greater than 100 µM and the Ki (BtabCSP2; [2]) is reported as greater than 100 µM. For the same molecule, the Ki (BtabCSP3; [3]) was greater than 100 µM.
In the case of `CC(=O)/C=C/C1=C(C)CCCC1(C)C` [β-Ionone], the IC50 (BtabCSP1) is reported as 14.6 to 95.1 µM, the Ki (BtabCSP1; [7]) is reported as 32.1 ± 1.48 µM and the Ki (BtabCSP2) is reported as greater than 100 µM. It also gave a Ki (BtabCSP3) greater than 100 µM.
In the case of `CC/C=C\CCOC(C)=O` [(Z)-3-Hexenyl acetate], the Ki (BtabCSP1; [6]) is reported as greater than 100 µM, the Ki (BtabCSP2; [2]) is reported as greater than 100 µM and the Ki (BtabCSP3; [3]) is reported as greater than 100 µM.
In the case of `CCCCCCC` [n-Heptane], the IC50 (BtabCSP1; [5]) is reported as 14.6 to 95.1 µM, the Ki (BtabCSP1; [6]) is reported as greater than 100 µM and the Ki (BtabCSP2; [2]) is reported as greater than 100 µM. The Ki (BtabCSP3; [3]) was greater than 100 µM.
`CC(C)=CCC/C(C)=C/CC/C(C)=C/CO` [Trans,trans-Farnesol] was tested, and the Ki (BtabCSP1; [6]) was greater than 100 µM, the Ki (BtabCSP2; [2]) was greater than 100 µM and the Ki (BtabCSP3; [3]) was greater than 100 µM.
Work on `C=CC(C)(O)CC/C=C(\C)CCC=C(C)C` (racemic) [(+/-)Nerolidol] yielded an IC50 (BtabCSP1; [5]) of 14.6 to 95.1 µM, a Ki (BtabCSP1; [6]) greater than 100 µM and a Ki (BtabCSP2; [2]) greater than 100 µM. For the same molecule, the Ki (BtabCSP3; [3]) was greater than 100 µM.
Molecule `CCCCCCCCCCCCCCC` [n-Pentadecane] has a Ki (BtabCSP1; [6]) greater than 100 µM, a Ki (BtabCSP2; [2]) greater than 100 µM and a Ki (BtabCSP3; [3]) greater than 100 µM.
`CCCCCCCCCC(=O)O` [Decanoic acid] showed an IC50 (BtabCSP1) of 14.6 to 95.1 µM, a Ki (BtabCSP1; [4]) greater than 100 µM and a Ki (BtabCSP2) greater than 100 µM. It also gave a Ki (BtabCSP3) greater than 100 µM.
For `CCCCCCC=O` [Heptanal], the Ki (BtabCSP1; [6]) was greater than 100 µM, the Ki (BtabCSP2; [2]) was greater than 100 µM and the Ki (BtabCSP3; [3]) was greater than 100 µM.
`CCC/C=C/C=O` [Trans-2-hexenal] showed a Ki (BtabCSP1; [6]) greater than 100 µM, a Ki (BtabCSP2; [2]) greater than 100 µM and a Ki (BtabCSP3; [3]) greater than 100 µM.
`CCC/C=C/COC(=O)CCC` [(E)-2-Hexenyl butyrate] gave a Ki (BtabCSP1; [6]) greater than 100 µM, a Ki (BtabCSP2; [2]) greater than 100 µM and a Ki (BtabCSP3; [3]) greater than 100 µM.
`CCCCCCCCCCCCCC(C)=O` [2-Pentadecanone] was tested, and the Ki (BtabCSP1; [6]) was greater than 100 µM, the Ki (BtabCSP2; [2]) was greater than 100 µM and the Ki (BtabCSP3; [3]) was greater than 100 µM.
Work on `CCCCCC(C=O)=Cc1ccccc1` [α-Pentyl-cinnamaldehyde] yielded a Ki (BtabCSP1; [1]) of 12.6 ± 1.3 µM, a Ki (BtabCSP2; competitive binding vs 1-NPN, three replicates ± SD, listed as α-pentyl-cinnamaldehyde, read-out: BtabCSP2 Ki) of 10.3 µM and a Ki (BtabCSP2; competitive binding vs 1-NPN, three replicates ± SD, read-out: BtabCSP2 Ki) of 10.3 ± 1.17 µM. For the same molecule, the IC50 (BtabCSP2) was 11.1 µM, the Ki (BtabCSP3; competitive binding vs 1-NPN, three replicates ± SD, listed as α-pentyl-cinnamaldehyde, read-out: BtabCSP3 Ki) was 5.8 µM and the Ki (BtabCSP3; [8]) was 5.82 ± 0.31 µM. It also gave an IC50 (BtabCSP3) of 6.5 µM.
`CC(C)=CCC/C(C)=C/CO` [Geraniol] showed an IC50 (BtabCSP1) of 14.6 to 95.1 µM, a Ki (BtabCSP1; [7]) of 39.6 ± 3.01 µM and a Ki (BtabCSP2) greater than 100 µM. For the same molecule, the Ki (BtabCSP3) was greater than 100 µM.
`CCCCCCCCCCCCC` [n-Tridecane] was tested, and the Ki (BtabCSP1; [6]) was greater than 100 µM, the Ki (BtabCSP2; [2]) was greater than 100 µM and the Ki (BtabCSP3; [3]) was greater than 100 µM.
With `CCCCCC(C)=O` [2-Heptanone] the Ki (BtabCSP1; [1]) was 55.3 ± 4.21 µM, the IC50 (BtabCSP1; [5]) was 14.6 to 95.1 µM and the Ki (BtabCSP2; [2]) was greater than 100 µM. It also gave a Ki (BtabCSP3; [3]) greater than 100 µM.
Work on `CC12CCC(CC1)C(C)(C)O2` [1,8-Cineole] yielded a Ki (BtabCSP1; [6]) greater than 100 µM, a Ki (BtabCSP2; [2]) greater than 100 µM and a Ki (BtabCSP3; [3]) greater than 100 µM.
`CC(=O)CCC=C(C)C` [6-Methyl-5-hepten-2-one] showed an IC50 (BtabCSP1) of 14.6 to 95.1 µM, a Ki (BtabCSP1; [4]) greater than 100 µM and a Ki (BtabCSP2) greater than 100 µM. It also gave a Ki (BtabCSP3) greater than 100 µM.
For `CCCCC/C=C\C/C=C\CCCCCCCC(=O)O` [Linoleic acid], the Ki (BtabCSP1; [1]) was 5.78 ± 0.39 µM, the IC50 (BtabCSP1; [5]) was 6.7 ± 0.52 µM and the IC50 (BtabCSP2) was greater than 100 µM. It also gave a Ki (BtabCSP2; [2]) greater than 100 µM, a Ki (BtabCSP3; [8]) of 43.5 ± 2.86 µM and an IC50 (BtabCSP3) of 48.5 ± 3.42 µM.
Molecule `C=CC(C)=CCC=C(C)C` [Ocimene] has a Ki (BtabCSP1; [6]) greater than 100 µM, a Ki (BtabCSP2; [2]) greater than 100 µM and a Ki (BtabCSP3; [3]) greater than 100 µM.
